{"source": "patent US20240041893A1", "about": "“An Extended-Release Pharmaceutical Formulation of Viloxazine And Process For Preparation Thereof” (Innovate Therapeutics LLC, priority 2023, published 2024)", "origin": "cited, not measured here", "test_system": "norepinephrine reuptake", "data": [{"smiles": "CCOc1ccccc1OC[C@@H]1CNCCO1", "note": "[(S)-(−)-isomer]", "values": [{"measurement": "pharmacological activity relative to the (R)-(+)-isomer", "value": "five times"}]}]}
